Read-outs that look alike come from different tables or passages of the source.
Tests used:
[1] = target: T1, Human cytomegalovirus DNA polymerase (Human cytomegalovirus, UniProt P08546); test: HCMV polymerase assay (AlphaLISA, IC50); assay type: biochemical; settings: polymerase assay of Example 190
T1 construct: made in house; host or cells: SF21 insect cells (baculovirus vector)
Experimental: (§1) Human cytomegalovirus and varicella zoster virus DNA polymerases were expressed via baculovirus vector in SF21 cells and purified. Heterodimeric nucleic acid substrate used in the herpesvirus polymerase reactions was generated by annealing a 59-mer template to a 17-mer digoxigenin-labeled primer. Polymerase (HCMV final concentration of 0.2 nM; VZV final concentration of 0.4 nM) was combined with an inhibitor compound or DMSO in assay buffer (10 mM HEPES, pH 7.5, 25 mM KCl, 25 mM NaCl, 5 mM MgCl2, 5% glycerol, 0.67 mg/ml bovine serum albuminutes, and 1 mM tris(2-carboxyethyl)phosphine), and this mixture was pre-incubated for 30 minutes at room temperature in 384-well microtiter plates. The polymerization reaction was initiated by the addition of template/primer substrate (final concentration: 1.6 nM), and dNTPs (final concentration: 24 nM dCTP, 24 nMdGTP, 16 nM dATP, 16 nM dTTP, and 0.8 nM biotin-dUTP). After 60 minutes incubation at 37° C., reactions were terminated with quench buffer (25 mM HEPES pH 7.5, 100 mM NaCl, 0.25% Tween-20, 12 mM EDTA, and 1 mg/ml bovine serum albumin). Incorporation of biotinylated UTP was detected with 2.5-5 ug/ml anti-DIG AlphaLISA acceptor beads and 5-10 ug/ml streptavidin AlphaLISA donor beads (Perkin Elmer). Compound effects were normalized to the window defined by the controls (DMSO only and pre-quenched wells), and were fit using a 4-parameter algorithm to report an IC50.

[2] = target: T2, varicella zoster virus DNA polymerase (Varicella-zoster virus, UniProt P09252); test: VZV polymerase assay (AlphaLISA, IC50); assay type: biochemical; settings: polymerase assay of Example 190
T2 construct: made in house; host or cells: SF21 insect cells (baculovirus vector)
Experimental: as §1

[3] = tested on: HCMV Strain AD169 in MRC-5 cells; test: Viral qPCR assay HCMV (V0/V1, V2/V3), EC50; assay type: cell-based
Experimental: (§2) Viral qPCR Assays (V0/V1)
(§3) MRC5 cells, Vero cells, and MeWo cells were obtained from ATCC and were maintained at 37° C./5% CO2/90% relative humidity in Minimal Essential Medium with 10% fetal bovine serum, […] L-glutamine, 100 units/ml penicillin and 100 ug/ml streptomycin. Assay plates were prepared by dispensing compounds dissolved in DMSO into wells of 384 well collagen-coated plates using an ECHO acoustic dispenser. Each compound was tested in a 10-point, serial 3-fold dilution. Controls included uninfected cells and infected cells treated only with DMSO. Assays were initiated by mixing selected cells, in suspension, with virus, and dispensing 50 μl/well infected cells to pre-plated compounds. Plates were incubated at 37° C./5% CO2/90% relative humidity for ˜72 hrs to permit genomic replication, and infected cells were lysed by the addition of an equal volume of lysis buffer (10 mM Tris-HCl, pH8, 50 mM KCl, 2 mM MgCl2, 0.45% NP-40, 0.45% Tween-20, and 100 μg/ml proteinase K). An aliquot of the lysate was transferred to a 384-well PCR plate and incubated at 56° C. for 1 hour and then at 95° C. for 10 min. Levels of a viral gene and of the cellular control, PPIA (Thermo Fisher Assay ID=Hs04194521_s1), were measured in separate 10 μL qPCR assays using TaqMan® Gene Expression Master Mix (Applied Biosystems), and an 7900HT Fast Real-Time PCR System with 384-Well Block Module. 7-point, serial 10-fold dilutions of a plasmid standard were run on each plate to generate a standard curve, and genome copies numbers were calculated by plotting experimental Ct onto linear regression of the standard curve. Viral genome copy numbers were normalized by cellular control copy number, and compound effects were normalized to the window defined by the controls. Calculated % effects were fit using a 4-parameter algorithm, and EC50 was reported.
(§4) Viral qPCR Assays (V2/V3)
as §3, with “gene” for “gene and of the cellular control, PPIA (Thermo Fisher Assay ID=Hs04194521_s1),”, “in” for “in separate”, “Compound effects on viral” for “Viral”, “number” for “numbers were normalized by cellular control copy number, and compound effects”, “reported. • HCMV: Strain AD169 Street was assayed in MRC-5 cells and was used at 0.05-0.1 pfu/cell. The assays were performed in either growth media or in the same media with 50% fetal bovine serum. Primer-probe set was Thermo Fisher Assay ID=AIFATFK. • VZV: Strain Street was maintained as an infected cell stock in MRC-5 cells. It was assayed in MeWo or MRC5 cells and was used at 0.04-0.1 pfu/cell. […]” for “reported.”

[4] = tested on: VZV in MeWo or MRC5 cells; test: Viral qPCR assay VZV (V0/V1, V2/V3), EC50; assay type: cell-based
Experimental: as §2, §3, §4
as §3, with “gene” for “gene and of the cellular control, PPIA (Thermo Fisher Assay ID=Hs04194521_s1),”, “in” for “in separate”, “Compound effects on viral” for “Viral”, “number” for “numbers were normalized by cellular control copy number, and compound effects”, “reported. • HCMV: Strain AD169 Street was assayed in MRC-5 cells and was used at 0.05-0.1 pfu/cell. The assays were performed in either growth media or in the same media with 50% fetal bovine serum. Primer-probe set was Thermo Fisher Assay ID=AIFATFK. • VZV: Strain Street was maintained as an infected cell stock in MRC-5 cells. It was assayed in MeWo or MRC5 cells and was used at 0.04-0.1 pfu/cell. […]” for “reported.”

[5] = tested on: HSV-1 Strain F in Vero or MRC5 cells; test: Viral qPCR assay HSV-1 (V0/V1, V2/V3), EC50; assay type: cell-based
Experimental: as §2, §3, §4
as §3, with “gene” for “gene and of the cellular control, PPIA (Thermo Fisher Assay ID=Hs04194521_s1),”, “in” for “in separate”, “Compound effects on viral” for “Viral”, “number” for “numbers were normalized by cellular control copy number, and compound effects”, “reported. • HCMV: Strain AD169 Street was assayed in MRC-5 cells and was used at 0.05-0.1 pfu/cell. The assays were performed in either growth media or in the same media with 50% fetal bovine serum. Primer-probe set was Thermo Fisher Assay ID=AIFATFK. • VZV: Strain Street was maintained as an infected cell stock in MRC-5 cells. It was assayed in MeWo or MRC5 cells and was used at 0.04-0.1 pfu/cell. […]” for “reported.”

[6] = Human betaherpesvirus 5, AD169, MRC5, viral qPCR assay of Example 191, read-out: HCMV Cell (EC50)
[7] = Human alphaherpesvirus 3, MRC5, MRC5 cells, 10%, read-out: VZV Cell (EC50) MRC5 10%
[8] = Human alphaherpesvirus 1, Vero, VERO cells, 10%, read-out: HSV1 Cell (EC50) VERO 10%
[9] = Human alphaherpesvirus 3, MeWo, MEWO cells, 10%, read-out: VZV Cell (EC50) MEWO 10%
[10] = MRC5 cells, 10%, read-out: VZV Cell (EC50) MRC5 10%
[11] = MRC5 cells, 10%, read-out: HSV1 Cell (EC50) MRC5 10%
[12] = viral qPCR assay of Example 191, read-out: HCMV Cell (EC50)

T2 sequence (P09252 whole entry): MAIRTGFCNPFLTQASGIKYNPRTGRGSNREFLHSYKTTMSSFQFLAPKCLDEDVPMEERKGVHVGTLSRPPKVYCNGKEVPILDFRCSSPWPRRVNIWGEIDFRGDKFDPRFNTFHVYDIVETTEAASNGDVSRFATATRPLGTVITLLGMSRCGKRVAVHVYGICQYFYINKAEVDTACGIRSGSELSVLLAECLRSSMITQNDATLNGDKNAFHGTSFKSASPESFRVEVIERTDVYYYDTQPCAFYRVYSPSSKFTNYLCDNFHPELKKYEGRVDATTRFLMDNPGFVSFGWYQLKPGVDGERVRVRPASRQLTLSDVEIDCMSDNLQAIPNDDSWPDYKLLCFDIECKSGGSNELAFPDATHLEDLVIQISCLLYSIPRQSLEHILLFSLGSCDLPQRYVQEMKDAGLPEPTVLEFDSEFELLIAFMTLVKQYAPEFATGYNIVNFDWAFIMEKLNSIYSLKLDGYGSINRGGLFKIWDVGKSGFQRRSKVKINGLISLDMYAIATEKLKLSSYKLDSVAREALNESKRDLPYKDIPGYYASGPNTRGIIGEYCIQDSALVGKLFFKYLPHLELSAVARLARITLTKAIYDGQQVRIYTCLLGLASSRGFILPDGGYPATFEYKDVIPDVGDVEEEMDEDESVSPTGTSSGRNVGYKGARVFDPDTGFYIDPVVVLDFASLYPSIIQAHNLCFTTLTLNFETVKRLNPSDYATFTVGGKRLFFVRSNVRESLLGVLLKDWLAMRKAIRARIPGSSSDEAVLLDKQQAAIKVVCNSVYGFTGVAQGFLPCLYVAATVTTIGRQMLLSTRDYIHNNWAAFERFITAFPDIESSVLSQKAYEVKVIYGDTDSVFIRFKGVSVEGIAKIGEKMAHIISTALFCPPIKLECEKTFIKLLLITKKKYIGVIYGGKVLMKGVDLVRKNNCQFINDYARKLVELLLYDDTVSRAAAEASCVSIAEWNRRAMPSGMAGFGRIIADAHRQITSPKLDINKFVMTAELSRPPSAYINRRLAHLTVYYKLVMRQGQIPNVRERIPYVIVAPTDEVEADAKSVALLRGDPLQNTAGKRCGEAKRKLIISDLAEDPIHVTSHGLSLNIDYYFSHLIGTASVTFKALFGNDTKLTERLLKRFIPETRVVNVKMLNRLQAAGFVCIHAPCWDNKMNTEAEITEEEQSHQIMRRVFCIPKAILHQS
T1 sequence (P08546 whole entry): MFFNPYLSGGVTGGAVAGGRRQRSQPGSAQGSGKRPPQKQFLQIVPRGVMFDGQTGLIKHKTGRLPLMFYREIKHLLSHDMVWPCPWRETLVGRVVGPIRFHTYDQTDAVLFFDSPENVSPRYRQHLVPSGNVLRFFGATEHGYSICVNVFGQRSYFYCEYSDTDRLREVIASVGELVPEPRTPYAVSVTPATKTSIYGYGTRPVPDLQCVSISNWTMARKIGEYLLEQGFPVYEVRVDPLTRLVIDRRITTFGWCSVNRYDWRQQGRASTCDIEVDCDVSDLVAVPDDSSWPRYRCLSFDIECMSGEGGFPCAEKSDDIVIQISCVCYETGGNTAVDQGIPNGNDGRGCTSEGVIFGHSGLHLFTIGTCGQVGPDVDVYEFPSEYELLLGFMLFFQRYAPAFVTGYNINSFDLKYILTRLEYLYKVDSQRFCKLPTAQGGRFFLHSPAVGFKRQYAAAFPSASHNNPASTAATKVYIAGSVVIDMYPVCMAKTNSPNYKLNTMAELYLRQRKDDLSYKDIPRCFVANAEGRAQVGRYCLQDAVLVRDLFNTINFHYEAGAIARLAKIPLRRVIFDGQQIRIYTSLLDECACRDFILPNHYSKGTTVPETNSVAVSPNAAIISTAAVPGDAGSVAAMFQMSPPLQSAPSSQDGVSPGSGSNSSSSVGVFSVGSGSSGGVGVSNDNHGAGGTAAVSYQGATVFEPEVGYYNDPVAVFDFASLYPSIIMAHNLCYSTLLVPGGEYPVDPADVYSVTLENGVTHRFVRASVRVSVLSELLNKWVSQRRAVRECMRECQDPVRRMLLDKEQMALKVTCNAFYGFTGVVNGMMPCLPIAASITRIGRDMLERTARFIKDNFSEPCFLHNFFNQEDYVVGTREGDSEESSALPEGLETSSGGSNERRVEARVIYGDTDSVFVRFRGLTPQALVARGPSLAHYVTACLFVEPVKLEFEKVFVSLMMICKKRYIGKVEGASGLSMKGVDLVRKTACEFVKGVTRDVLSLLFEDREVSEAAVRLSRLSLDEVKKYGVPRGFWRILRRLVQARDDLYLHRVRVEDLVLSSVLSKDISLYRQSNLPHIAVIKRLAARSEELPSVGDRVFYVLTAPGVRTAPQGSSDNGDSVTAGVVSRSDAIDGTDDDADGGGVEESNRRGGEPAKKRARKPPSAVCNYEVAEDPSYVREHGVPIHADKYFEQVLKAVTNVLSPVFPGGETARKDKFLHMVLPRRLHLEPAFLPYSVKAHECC

Compound | IC50 [1] | IC50 [2] | EC50 [3, 6] | EC50 [4, 7] | EC50 [5, 8] | EC50 [4, 9] | EC50 ([3]; Human betaherpesvirus 5, AD169, MRC5, read-out: HCMV Cell (EC50)) | EC50 ([4]; Human alphaherpesvirus 3, MeWo, read-out: VZV Cell (EC50) MEWO 10%) | EC50 ([5]; Human alphaherpesvirus 1, Vero, read-out: HSV1 Cell (EC50) VERO 10%) | EC50 [4, 10] | EC50 [5, 11] | EC50 [3, 12] | EC50 ([5]; VERO cells, 10%, read-out: HSV1 Cell (EC50) VERO 10%)
CC1(O)CCN(Cc2cnc(C(=O)NCc3ccc(Cl)cc3)cc2O[C@H]2CCN3C(=O)OC[C@@H]3C2)C1 (mixture of isomers) [Compound 134] | 124 nM | 95.4 nM | 1930 nM | 3970 nM | 5850 nM |  |  |  |  |  |  |  | 
CO[C@H]1CN(Cc2cnc(C(=O)NCc3ccc(Cl)cc3)cc2O[C@H]2CCN3C(=O)OC[C@@H]3C2)[C@@H]1C (mixture of isomers) [Compound 137] | 35 nM | 36.7 nM | 575 nM | 1420 nM | 602 nM |  |  |  |  |  |  |  | 
O=C(NCc1ccc(Cl)cc1)c1cc(O[C@H]2CCN3C(=O)OC[C@@H]3C2)c(CN2CCCC(O)C2)cn1 (mixture of isomers) [Compound 140] | 62 nM | 54.6 nM | 855 nM | 2560 nM | 4320 nM |  |  |  |  |  |  |  | 
O=C(NCc1ccc(Cl)cc1)c1cc(O[C@H]2CCN3C(=O)OC[C@@H]3C2)c(CN2CCC3OCCC32)cn1 (mixture of isomers) [Compound 142] | 17.8 nM | 12.9 nM | 243 nM | 490 nM | 453 nM |  |  |  |  |  |  |  | 
CC(C)CCn1cc(-c2cnc(C(=O)NCc3ccc(Cl)cc3)cc2O[C@H]2CCN3C(=O)OC[C@@H]3C2)cn1 (racemic) [Compound 9] | 147 nM | 114 nM | 582 nM |  | 1130 nM | 859 nM |  |  |  |  |  |  | 
CN(C)CCn1cc(-c2cnc(C(=O)NCc3ccc(Cl)cc3)cc2O[C@H]2CCN3C(=O)OC[C@@H]3C2)cn1 (racemic) [Compound 10] | 80.1 nM | 41.7 nM | 178 nM |  | 1360 nM | 375 nM |  |  |  |  |  |  | 
CC(C)Cn1cc(-c2cnc(C(=O)NCc3ccc(Cl)cc3)cc2O[C@H]2CCN3C(=O)OC[C@@H]3C2)cn1 (racemic) [Compound 11] | 70.5 nM | 51.2 nM | 685 nM |  | 813 nM | 712 nM |  |  |  |  |  |  | 
CC(C)(C)n1cc(-c2cnc(C(=O)NCc3ccc(Cl)cc3)cc2O[C@H]2CCN3C(=O)OC[C@@H]3C2)cn1 (racemic) [Compound 12] | 70.5 nM | 69.6 nM | 1160 nM |  | 882 nM | 977 nM |  |  |  |  |  |  | 
CCCn1cc(-c2cnc(C(=O)NCc3ccc(Cl)cc3)cc2O[C@H]2CCN3C(=O)OC[C@@H]3C2)cn1 (racemic) [Compound 13] | 50.9 nM | 38 nM | 363 nM |  | 388 nM | 601 nM |  |  |  |  |  |  | 
CCn1cc(-c2cnc(C(=O)NCc3ccc(Cl)cc3)cc2O[C@H]2CCN3C(=O)OC[C@@H]3C2)cn1 (racemic) [Compound 16] | 20.8 nM | 11.2 nM | 188 nM |  | 200 nM | 165 nM |  |  |  |  |  |  | 
Cn1cc(-c2cnc(C(=O)NCc3ccc(C#N)cc3)cc2O[C@H]2CCN3C(=O)OC[C@@H]3C2)cn1 (racemic) [Compound 95] | 38.8 nM | 23.9 nM | 181 nM |  | 1920 nM | 241 nM |  |  |  |  |  |  | 
Cn1cc(-c2cnc(C(=O)NCc3ccc(Cl)cc3)cc2O[C@H]2CCN3C(=O)COC[C@@H]3C2)cn1 (racemic) [Compound 157] | 150 nM | 70.8 nM |  |  |  |  | 901 nM | 852 nM | 222 nM |  |  |  | 
N#Cc1cnc(C(=O)NCc2ccc(Cl)cc2)cc1O[C@H]1CCN2C(=O)CC[C@@H]2C1 (racemic) [Compound 158] | 67.9 nM | 40.7 nM | 1040 nM |  | 473 nM | 574 nM |  |  |  |  |  |  | 
O=C(NCc1ccc(Cl)cc1)c1cc(O[C@H]2CCN3C(=O)NC[C@@H]3C2)c(-c2cnn(C(F)F)c2)cn1 (racemic) [Compound 163] | 203 nM | 105 nM | 2730 nM |  | 762 nM | 588 nM |  |  |  |  |  |  | 
Cn1cc(-c2cnc(C(=O)NCc3ccc(Cl)cc3)cc2O[C@H]2CCN3C(=O)CC[C@H]3C2)cn1 (racemic) [Compound 170] | 178 nM | 87.4 nM | 736 nM |  | 266 nM | 599 nM |  |  |  |  |  |  | 
Cn1cc(-c2cnc(C(=O)NCc3ccc(Cl)cc3)cc2O[C@H]2CCN3C(=O)NC[C@H]3C2)cn1 (racemic) [Compound 171] | 219 nM | 87.7 nM | 1090 nM |  | 1950 nM | 883 nM |  |  |  |  |  |  | 
CC(C)(O)C1CCN(c2cnc(C(=O)NCc3ccc(Cl)cc3)cc2O[C@H]2CCN3C(=O)OC[C@@H]3C2)C1 (single isomer, unassigned) [Compound 117-1] | 22.7 nM | 10.5 nM | 360 nM |  |  |  |  |  |  | 844 nM | 566 nM |  | 
CC(C)(O)C1CCN(c2cnc(C(=O)NCc3ccc(Cl)cc3)cc2O[C@H]2CCN3C(=O)OC[C@@H]3C2)C1 (single isomer, unassigned) [Compound 117-2] | 12.1 nM | 3.05 nM |  |  |  |  |  |  |  | 9100 nM | 4780 nM | 211 nM | 
O=C(NCc1ccc(Cl)cc1)c1cc(O[C@H]2CCN3C(=O)OC[C@@H]3C2)c(C2CC2CO)cn1 (single isomer, unassigned) [Compound 156-1] | 40.3 nM | 24.9 nM |  |  |  |  |  |  |  | 2630 nM |  | 1280 nM | 3500 nM

From patent US20240067657A1, “AMIDO-SUBSTITUTED PYRIDYL COMPOUNDS AND METHODS OF USE THEREOF FOR THE TREATMENT OF HERPESVIRUSES” (Merck Sharp & Dohme LLC, priority 2020, published 2024)
